Laboratory results: patent US6399590B2, “Phosphoglycolipid and methods for its use” (Corixa Corporation, priority 1998, dated 2002)

Columns and labels:
[1] = system: rabbit model of regional myocardial ischemia; test: Infarct size in rabbits, 30 min coronary occlusion and 3 h reperfusion; format: in vivo, New Zealand white rabbits
Protocol: Male New Zealand white rabbits weighing 2.5-3.5 kg were injected with vehicle or L34 24 h before the experiment. L34 was formulated in vehicle composed of 40% propylene glycol, 10% ethanol in water. For the experiment, animals were intramuscularly anesthetized with ketamine (35 mg/kg) and xylazine (5 mg/kg). Tracheotomy was performed and the animals intubated with a cuffed endotracheal tube (Portex, 4.0 mm internal diameter) and then mechanically ventilated with room air on a positive pressure respirator Q Industries, Mobile, Ala.). Ventilatory rate was 27-35 breaths per min, and tidal volume was approximately 10-17 ml. […] The EKG was recorded throughout the experiment via lead II of the standard elctrocardiogram. […]
At the end of each experiment, the ligature around the large marginal branch of the circumflex artery was retightened to reocclude the artery and approximately 4 ml of 10% Evans blue dye was injected into the jugular vein until the eyes turned blue. […] The area at risk was determined by negative staining and calculated as a percentage of the portion of left ventricle containing the risk area (AAR/LV %) and infarct size as a percentage of area at risk (IS/AAR %). […] Regions of infarcted tissue and the risk zone were determined by computer morphometry using Bioquant imaging software and the percentage of infarcted area and risk area calculated.

[2] = system: canine model of repetitive transient regional ischemia; test: Myocardial stunning in dogs, repetitive transient regional ischemia; format: in vivo, dog
Protocol: The compound of the subject invention provided both an acute and delayed protective effect against cardiac stunning in dogs. Pretreatment of dogs with the compound of the subject invention 10 minutes and 24 hours prior to ischemia produced significant improvement in the recovery of regional segment shortening (%SS) in the ischemic-reperfused myocardium of anesthetized dogs subjected to a multiple ischemia/reperfusion stunning protocol. Dogs were subjected to five 5-minute periods of coronary artery occlusion interspersed with 10 minute periods of reperfusion and finally followed by 2 hours of reperfusion. Regional systolic shortening in the subendocardium of the ischemic area was determined by sonomicrometry by placing a set of piezoelectric crystals in the subendocardium approximately 10-15 mm apart. Regional myocardial blood flow was determined by the radioactive microsphere technique during the first 5 min occlusion period and at the end of 2 h of reperfusion. Hemodynamics and blood gases were also measured at various times throughout the experiment. There was no significant differences between the control and pretreated groups in body weight, left ventricular weight, area at risk weight or the area at risk as a % of the left ventricle. […]

[3] = system: TNF-α secretion by THP-1 cells; test: TNF-α secretion in THP-1 cells (ELISA); format: cell-based, human; conditions: any concentration between 1 ng/ml and 10 μg/ml; supernatants at 4, 16 and 24 hours
Protocol: The human myelomonocytic cell line THP-1 is commonly used for the analysis of the proinflammatory status of various compounds. THP-1 cells (American Type Culture Collections Cat. No. 202-TIB) were grown in RPMI 1640, 10% heat inactivated fetal bovine serum (FBS) and […] β-mercaptoethanol to a cell density of between 4×10^5/ml and 7×10^5/ml. Cells were removed from culture and resuspended at 1×10^6 cells/ml in RPMI 1640 containing 5% fetal bovine serum. Resuspended cells were then pipetted into sterile, disposable polystyrene 150×25 mm petri dishes and treated with the natural maturational agent 1α, 25-dihyroxyvitamin D3 at 1×10^−7 M between 24 and 72 hours depending on the degree of maturation desired. These maturationally “pretreated” cells were then washed 3× in RPMI 1640 containing more than 2% but less than 10% fetal bovine serum. After the third wash cells were resuspended in RPMI 1640 containing 5% FBS plus 2% human AB sera (Irvine Scientific) at 5×10^5 cells/ml and transferred at 2 ml per well in a tissue culture grade, flat bottom polystyrene 24 well plate. […] Cytokine concentration in the THP-1 culture supernatants were quantified using standard human cytokine ELISA kits from R&D Laboratories. […]

rabbits (fever response) = test: Three rabbit USP pyrogen test; format: in vivo; set-up: key to Average Temperature Rise: body temperature rise in °F (decreases recorded as zero)
Protocol: The compound of the subject invention was evaluated for pyrogenicity using a standard three rabbit USP pyrogen test (NAMSA, Northwood Ohio) at dose levels between 10 and 1000 μg/kg. Three rabbits were intravenously administered the compound in 40% propylene glycol and 10% ethanol in water at varying doses diluted one to one in D5W prior to dosing. Each animal's body temperature was monitored over the course of 4 h. Pyrogenic doses and borderline pyrogenic doses were defined by established USP definitions. Any temperature decrease was recorded as a rise of zero. An individual rise in temperature of less than 0.5° F. was considered non-pyrogenic.

CCCCCCCCCCCCCCCCCC(=O)O[C@H](CCCCCCCCCCC)CC(=O)N[C@H]1[C@H](OC[C@H]2OC(O)[C@H](NC(=O)C[C@@H](CCCCCCCCCCC)OC(=O)CCCCCCCCCCCCCCC)[C@@H](O)[C@@H]2O)O[C@H](CO)[C@@H](OP(=O)(O)O)[C@@H]1OC(=O)C[C@@H](CCCCCCCCCCC)OC(=O)CCCCCCCCCCCCC (stereo partly drawn) [L34, 2-Deoxy-6-O-[2-deoxy-4-O-phosphono-3-O-[(R)-3-tetradecanoyloxytetradecanoyl]-2-[(R)-3-octadecanoyloxytetradecanoylamino]-β-D-glucopyranosyl]-2-[(R)-3-hexadecanoyloxytetradecanoylamino]-D-glucopyranose]
reduction in infarct size (percentage of area at risk) compared to controls ([1]; 35 μg/kg given 24 h before ischemia, FIG. 1): approximately 70% | reduction in infarct size, dose response ([1]; doses of 10 to 35 μg/kg given 24 h before ischemia, FIG. 2): > 50% | recovery of regional wall motion (%SS) vs control group ([2]; 24 h pretreatment, after 1st and 4th occlusion and all times of final 2 h reperfusion, FIG. 6): significantly greater recovery of regional wall motion (%SS) | recovery of regional wall motion (%SS) vs control group ([2]; pretreatment 10 min prior to first occlusion, after 1st, 2nd, 4th occlusion and all times of final 2 h reperfusion, FIG. 5): significantly greater recovery of regional wall motion (%SS) | TNF-α secretion [3]: did not induce detectable | Average Temperature Rise (rabbits (fever response); L34 dose 10 μg/kg i.v.): 0.14 | Average Temperature Rise (rabbits (fever response); L34 dose 20 μg/kg i.v.): 0.17 | Average Temperature Rise (rabbits (fever response); L34 dose 30 μg/kg i.v.): 0.17 | Average Temperature Rise (rabbits (fever response); L34 dose 40 μg/kg i.v.): 0.00 | Average Temperature Rise (rabbits (fever response); L34 dose 60 μg/kg i.v.): 0.10 | Average Temperature Rise (rabbits (fever response); L34 dose 80 μg/kg i.v.): 0.13 | Average Temperature Rise (rabbits (fever response); L34 dose 120 μg/kg i.v.): 0.23 | Average Temperature Rise (rabbits (fever response); L34 dose 160 μg/kg i.v.): 0.17 | Average Temperature Rise (rabbits (fever response); L34 dose 240 μg/kg i.v.): 0.00 | Average Temperature Rise (rabbits (fever response); L34 dose 360 μg/kg i.v.): 0.30 | Average Temperature Rise (rabbits (fever response); L34 dose 480 μg/kg i.v.): 0.06 | Average Temperature Rise (rabbits (fever response); L34 dose 500 μg/kg i.v.): 0.12 | Average Temperature Rise (rabbits (fever response); L34 dose 1000 μg/kg i.v.): 0.10 | pyrogenicity (rabbits (fever response); i.v., dose levels between 10 and 1000 μg/kg): not pyrogenic at any of the doses tested
